Assay results: patent US20060069132A1, “Azolecarboxamide herbicides” (priority 2004, published 2006)

How the values were obtained:
[1] = system: barnyardgrass; assay: Test B pre-/postemergence herbicide test; format: in vivo, Echinochloa crus-galli; details: for Barnyardgrass plant response rating (0 to 100 scale) / Plant response rating, Barnyardgrass: 0 = no effect, 100 = complete control, preemergence; for Plant response rating, Barnyardgrass / Barnyardgrass plant response rating: visual rating; for Barnyardgrass plant response rating: postemergence, scale 0 (no effect) to 100 (complete control)
Outline: (§1)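 Seeds were planted and treated preemergence with compounds formulated in a non-phytotoxic solvent mixture containing surfactant, while plants at the 1- to 4-leaf stage (2 to 18 cm) received postemergence sprays. Flooded paddy plants were grown to the 2-leaf stage. After 13 to 15 days in a greenhouse, injury was visually rated 0–100 against untreated controls.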

[2] = system: Surinam grass; assay: Test B pre-/postemergence herbicide test; format: in vivo, Urochloa decumbens; details: for Surinam Grass plant response rating (0 to 100 scale) / Plant response rating, Surinam Grass: 0 = no effect, 100 = complete control, preemergence; for Surinam Grass plant response rating: postemergence
Outline: (§2)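 Plants compared with untreated controls 13–15 days post-treatment and given a visual 0–100 injury score. Applications: preemergence to seeds; postemergence at 1- to 4-leaf (2–18 cm); paddy species flooded, 2-leaf stage. Vehicle non-phytotoxic, surfactant included.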

[3] = system: cocklebur; assay: Test B pre-/postemergence herbicide test; format: in vivo, Xanthium strumarium; details: for Cocklebur plant response rating (0 to 100 scale) / Plant response rating, Cocklebur: 0 = no effect, 100 = complete control, preemergence; for Plant response rating, Cocklebur / Cocklebur plant response rating: visual rating; for Cocklebur plant response rating: postemergence, scale 0 (no effect) to 100 (complete control)
Outline: as §1

[4] = system: corn; assay: Test B pre-/postemergence herbicide test; format: in vivo, Zea mays; details: for Corn plant response rating (0 to 100 scale) / Plant response rating, Corn: 0 = no effect, 100 = complete control, preemergence; for Corn plant response rating: postemergence
Outline: as §2

[5] = system: large crabgrass; assay: Test B pre-/postemergence herbicide test; format: in vivo, Digitaria sanguinalis; details: for Crabgrass, Large plant response rating: postemergence
Outline: as §2

[6] = system: giant foxtail; assay: Test B pre-/postemergence herbicide test; format: in vivo, Setaria faberi; details: for Foxtail, Giant plant response rating (0 to 100 scale) / Plant response rating, Foxtail, Giant: 0 = no effect, 100 = complete control, preemergence; for Foxtail, Giant plant response rating: postemergence
Outline: as §2

[7] = system: lambsquarters; assay: Test B pre-/postemergence herbicide test; format: in vivo, Chenopodium album; details: for Lambsquarters plant response rating: postemergence
Outline: as §2

[8] = system: morningglory; assay: Test B pre-/postemergence herbicide test; format: in vivo, Ipomoea coccinea; details: for Morningglory plant response rating (0 to 100 scale) / Plant response rating, Morningglory: 0 = no effect, 100 = complete control, preemergence; for Morningglory plant response rating: postemergence
Outline: as §1

[9] = system: pigweed; assay: Test B pre-/postemergence herbicide test; format: in vivo, Amaranthus retroflexus; details: for Pigweed plant response rating (0 to 100 scale) / Plant response rating, Pigweed: 0 = no effect, 100 = complete control, preemergence; for Pigweed plant response rating: postemergence
Outline: as §2

[10] = system: rice; assay: Test B pre-/postemergence herbicide test; format: in vivo, Oryza sativa; details: 0 = no effect, 100 = complete control, preemergence; for Rice plant response rating (0 to 100 scale): 125 g ai/ha; for Plant response rating, Rice: 500 g ai/ha, visual rating
Outline: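 Greenhouse pot assay with simultaneous preemergence (treated seed) and postemergence (2–18 cm seedlings) applications of surfactant-containing, non-phytotoxic solvent formulations. Response scored visually 13–15 days later on a 0–100 scale, 100 meaning complete control.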

[11] = system: velvetleaf; assay: Test B pre-/postemergence herbicide test; format: in vivo, Abutilon theophrasti; details: for Velvetleaf plant response rating (0 to 100 scale) / Plant response rating, Velvetleaf: 0 = no effect, 100 = complete control, preemergence; for Velvetleaf plant response rating: postemergence
Outline: as §2

[12] = system: blackgrass; assay: Test B postemergence herbicide test; format: in vivo, Alopecurus myosuroides; details: postemergence, visual rating, scale 0 (no effect) to 100 (complete control)
Outline: (§3)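 Postemergence plants were sprayed with formulated test chemicals at 2 to 18 cm height (1- to 4-leaf stage); paddy species were grown to the 2-leaf stage. After 13 to 15 days in a greenhouse, injury was rated visually against untreated controls on a 0–100 scale (0 = no effect, 100 = complete control).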

[13] = system: wheat; assay: Test B postemergence herbicide test; format: in vivo, Triticum aestivum; parameters: key to Wheat plant response rating: 0 = no effect, 100 = complete control; details: postemergence
Outline: (§4)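 Read-out: visual comparison with controls, scored 0 to 100, where 100 means complete control and 0 no effect. Formulated chemicals were applied postemergence to plants 2–18 cm tall (1- to 4-leaf), or to flooded-paddy plants at the 2-leaf stage, then held 13 to 15 days under glass.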

[14] = system: wild oat; assay: Test B postemergence herbicide test; format: in vivo, Avena fatua; details: postemergence
Outline: as §4

[15] = system: rice; assay: Test B flooded paddy test; format: in vivo, Oryza sativa; details: 1000 g ai/ha, scale 0 to 100 (0 no effect, 100 complete control)
Outline: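 Formulated test chemicals went onto postemergence plants measuring 2 to 18 cm, at one to four leaves. For the paddy assay, species had reached two leaves. Scoring took place 13–15 days later by eye, relative to untreated plants, using 0 for no effect up to 100 for full control.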

[16] = system: small flower umbrella sedge; assay: Test B flooded paddy test; format: in vivo, Cyperus difformis; details: 1000 g ai/ha, scale 0 to 100 (0 no effect, 100 complete control)
Outline: as §3

[17] = system: ducksalad; assay: Test B flooded paddy test; format: in vivo, Heteranthera limosa; details: 1000 g ai/ha, scale 0 to 100 (0 no effect, 100 complete control)
Outline: as §3

[18] = system: barnyardgrass; assay: Test B flooded paddy test; format: in vivo, Echinochloa crus-galli; details: 1000 g ai/ha, scale 0 to 100 (0 no effect, 100 complete control)
Outline: as §3

[19] = 125 g ai/ha, visual rating, scale 0 (no effect) to 100 (complete control)
[20] = 500 g ai/ha, scale 0 to 100, 0 is no effect, 100 is complete control
[21] = 125 g ai/ha, 0 = no effect, 100 = complete control, preemergence
[22] = 500 g ai/ha, visual rating, 0 = no effect, 100 = complete control, preemergence

C#CCNC(=O)c1cncc(NC(=O)c2cc(C(C)(C)C)nn2CC)c1 [Compound 264]
20: Blackgrass plant response rating ([12]; 500 g ai/ha) | Oat, Wild plant response rating [14, 20]
50: Plant response rating, Crabgrass, Large [5, 22] | Sedge, Umbrella plant response rating [16]
0: Barnyardgrass plant response rating (0 to 100 scale) ([1]; 125 g ai/ha) | Barnyardgrass plant response rating ([1]; 125 g ai/ha) | Barnyardgrass plant response rating ([1]; 500 g ai/ha) | Surinam Grass plant response rating (0 to 100 scale) ([2]; 125 g ai/ha) | Surinam Grass plant response rating [2, 19] | Surinam Grass plant response rating [2, 20] | Cocklebur plant response rating (0 to 100 scale) ([3]; 125 g ai/ha) | Plant response rating, Cocklebur ([3]; 500 g ai/ha) | Cocklebur plant response rating ([3]; 125 g ai/ha) | Cocklebur plant response rating ([3]; 500 g ai/ha) | Corn plant response rating (0 to 100 scale) ([4]; 125 g ai/ha) | Plant response rating, Corn ([4]; 500 g ai/ha, visual rating) | Corn plant response rating [4, 19] | Corn plant response rating [4, 20] | Crabgrass, Large plant response rating [5, 19] | Crabgrass, Large plant response rating [5, 20] | Foxtail, Giant plant response rating (0 to 100 scale) ([6]; 125 g ai/ha) | Foxtail, Giant plant response rating [6, 19] | Foxtail, Giant plant response rating [6, 20] | Lambsquarters plant response rating (0 to 100 scale) [7, 21] | Lambsquarters plant response rating [7, 19] | Lambsquarters plant response rating [7, 20] | Morningglory plant response rating (0 to 100 scale) ([8]; 125 g ai/ha) | Plant response rating, Morningglory ([8]; 500 g ai/ha, visual rating) | Morningglory plant response rating [8, 19] | Morningglory plant response rating [8, 20] | Pigweed plant response rating (0 to 100 scale) ([9]; 125 g ai/ha) | Pigweed plant response rating [9, 19] | Pigweed plant response rating [9, 20] | Rice plant response rating (0 to 100 scale) [10] | Plant response rating, Rice [10] | Velvetleaf plant response rating (0 to 100 scale) ([11]; 125 g ai/ha) | Velvetleaf plant response rating [11, 19] | Velvetleaf plant response rating [11, 20] | Blackgrass plant response rating ([12]; 125 g ai/ha) | Wheat plant response rating [13, 19] | Oat, Wild plant response rating [14, 19] | Rice plant response rating [15] | Barnyardgrass plant response rating [18]
100: Plant response rating, Lambsquarters [7, 22] | Plant response rating, Pigweed ([9]; 500 g ai/ha, visual rating)
10: Plant response rating, Barnyardgrass ([1]; 500 g ai/ha) | Plant response rating, Surinam Grass ([2]; 500 g ai/ha, visual rating) | Crabgrass, Large plant response rating (0 to 100 scale) [5, 21] | Plant response rating, Foxtail, Giant ([6]; 500 g ai/ha, visual rating) | Plant response rating, Velvetleaf ([11]; 500 g ai/ha, visual rating) | Wheat plant response rating [13, 20]
90: Ducksalad plant response rating [17]

CCn1nc(C(C)(C)C)cc1C(=O)Nc1nc(C(=O)OC)ccc1OC [Compound 265]
0: Barnyardgrass plant response rating (0 to 100 scale) ([1]; 125 g ai/ha) | Plant response rating, Barnyardgrass ([1]; 500 g ai/ha) | Barnyardgrass plant response rating ([1]; 125 g ai/ha) | Barnyardgrass plant response rating ([1]; 500 g ai/ha) | Surinam Grass plant response rating (0 to 100 scale) ([2]; 125 g ai/ha) | Surinam Grass plant response rating [2, 19] | Surinam Grass plant response rating [2, 20] | Cocklebur plant response rating (0 to 100 scale) ([3]; 125 g ai/ha) | Plant response rating, Cocklebur ([3]; 500 g ai/ha) | Cocklebur plant response rating ([3]; 125 g ai/ha) | Cocklebur plant response rating ([3]; 500 g ai/ha) | Corn plant response rating (0 to 100 scale) ([4]; 125 g ai/ha) | Plant response rating, Corn ([4]; 500 g ai/ha, visual rating) | Corn plant response rating [4, 19] | Crabgrass, Large plant response rating [5, 19] | Crabgrass, Large plant response rating [5, 20] | Foxtail, Giant plant response rating (0 to 100 scale) ([6]; 125 g ai/ha) | Foxtail, Giant plant response rating [6, 19] | Foxtail, Giant plant response rating [6, 20] | Plant response rating, Lambsquarters [7, 22] | Lambsquarters plant response rating [7, 19] | Lambsquarters plant response rating [7, 20] | Morningglory plant response rating (0 to 100 scale) ([8]; 125 g ai/ha) | Plant response rating, Morningglory ([8]; 500 g ai/ha, visual rating) | Morningglory plant response rating [8, 19] | Pigweed plant response rating (0 to 100 scale) ([9]; 125 g ai/ha) | Plant response rating, Pigweed ([9]; 500 g ai/ha, visual rating) | Pigweed plant response rating [9, 19] | Rice plant response rating (0 to 100 scale) [10] | Plant response rating, Rice [10] | Velvetleaf plant response rating (0 to 100 scale) ([11]; 125 g ai/ha) | Velvetleaf plant response rating [11, 19] | Blackgrass plant response rating ([12]; 125 g ai/ha) | Wheat plant response rating [13, 19] | Oat, Wild plant response rating [14, 19] | Rice plant response rating [15] | Sedge, Umbrella plant response rating [16] | Ducksalad plant response rating [17] | Barnyardgrass plant response rating [18]
10: Corn plant response rating [4, 20] | Morningglory plant response rating [8, 20] | Plant response rating, Velvetleaf ([11]; 500 g ai/ha, visual rating) | Velvetleaf plant response rating [11, 20] | Blackgrass plant response rating ([12]; 500 g ai/ha) | Wheat plant response rating [13, 20] | Oat, Wild plant response rating [14, 20]
20: Pigweed plant response rating [9, 20]
40: Plant response rating, Surinam Grass ([2]; 500 g ai/ha, visual rating)
50: Plant response rating, Foxtail, Giant ([6]; 500 g ai/ha, visual rating)
